Measurements from article PMC11892714 (OTA International, 2025).

Test: Vancomycin pharmacokinetics, serum concentration after IO vs IV delivery
Assay type: in vivo, New Zealand White rabbits
Details: rabbit, samples T0-T6, LC-MS/MS (Fig. 7A)

For `CN[C@H](CC(C)C)C(=O)N[C@H]1C(=O)N[C@@H](CC(N)=O)C(=O)N[C@H]2C(=O)N[C@H]3C(=O)N[C@H](C(=O)N[C@H](C(=O)O)c4cc(O)cc(O)c4-c4cc3ccc4O)[C@H](O)c3ccc(c(Cl)c3)Oc3cc2cc(c3O[C@@H]2O[C@H](CO)[C@@H](O)[C@H](O)[C@H]2O[C@H]2C[C@](C)(N)[C@H](O)[C@H](C)O2)Oc2ccc(cc2Cl)[C@H]1O` [vancomycin], the “Serum vancomycin profile across time, IO delivery” value (30 mg/kg IO over 30 min) was “slight peak but remained at relatively consistent serum levels across time points” and the “Serum vancomycin profile across time, IV delivery” value (30 mg/kg IV over 30 min) was “high systemic peak soon after bolus delivery with a steady decline across time”.
